Experimental data: article PMC3436960 (Biochemistry, 2012)

Legend:
[1] = biological target: S. typhimurium OMP synthase (orotate phosphoribosyltransferase) (Salmonella enterica, UniProt P08870, E101A); test: biochemical
[2] = biological target: S. typhimurium OMP synthase (orotate phosphoribosyltransferase) (Salmonella enterica, UniProt P08870, H105A); test: biochemical
[3] = biological target: T1, S. typhimurium OMP synthase (orotate phosphoribosyltransferase) (Salmonella enterica, UniProt P08870); test: equilibrium binding by centrifugal filtration
T1 sequence (P08870 2-213): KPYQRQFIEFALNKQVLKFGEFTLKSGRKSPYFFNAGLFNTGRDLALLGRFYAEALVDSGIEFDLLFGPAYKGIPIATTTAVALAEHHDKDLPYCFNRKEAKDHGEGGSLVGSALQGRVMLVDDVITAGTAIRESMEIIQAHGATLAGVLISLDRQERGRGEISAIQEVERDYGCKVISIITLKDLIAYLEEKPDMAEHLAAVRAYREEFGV

[4] = biological target: S. typhimurium OMP synthase (orotate phosphoribosyltransferase) (Salmonella enterica, UniProt P08870, K103A); test: biochemical
[5] = biological target: S. typhimurium OMP synthase (orotate phosphoribosyltransferase) (Salmonella enterica, UniProt P08870, E107A); test: biochemical
[6] = biological target: S. typhimurium OMP synthase (orotate phosphoribosyltransferase) (Salmonella enterica, UniProt P08870, D104A); test: biochemical
[7] = biological target: S. typhimurium OMP synthase (orotate phosphoribosyltransferase) (Salmonella enterica, UniProt P08870, DEL102-102/DEL106-106); test: biochemical
purified protein [8] = substrate: O=P(O)(O)OP(=O)(O)O; test: purified protein; details: 100 μM OMP, 3 mM MgCl2, 80 mM Tris-Cl, pH 8.0, 30°C
purified protein [9] = substrate: O=C(O)c1cc(=O)[nH]c(=O)n1[C@@H]1O[C@H](COP(=O)(O)O)[C@@H](O)[C@H]1O; test: purified protein; details: 2 mM PPi, 3 mM MgCl2, 80 mM Tris-Cl, pH 8.0, 30°C
purified protein [10] = substrate: O=C(O)c1cc(=O)[nH]c(=O)[nH]1; test: purified protein; assay type: biochemical, Salmonella enterica; details: 1 mM PRPP, 6 mM MgCl2, 75 mM Tris-Cl, pH 8.0, 30°C
purified protein [11] = substrate: O=P(O)(O)OC[C@H]1O[C@H](OP(=O)(O)OP(=O)(O)O)[C@H](O)[C@@H]1O; test: purified protein; assay type: biochemical, Salmonella enterica; details: 300 μM orotate, 6 mM MgCl2, 75 mM Tris-Cl, pH 8.0, 30°C

Work on O=P(O)(O)OC[C@H]1O[C@H](OP(=O)(O)OP(=O)(O)O)[C@H](O)[C@@H]1O [PRPP] yielded a Kd [1] of 36 ± 3 µM, a Kd [2] of 92 ± 11 µM and a Kd [3] of 33 ± 0.5 µM. It also gave a Kd [4] of 125 ± 11 µM, a Kd [5] of 7.1 ± 0.5 µM and a Kd [6] of 13 ± 0.7 µM.

With O=C(O)c1cc(=O)[nH]c(=O)n1[C@@H]1O[C@H](COP(=O)(O)O)[C@@H](O)[C@H]1O [OMP] the Kd [1] was 12 ± 2 µM, the Kd [2] was 4 ± 0.3 µM and the Kd [3] was 3.1 ± 0.1 µM. The Kd [7] was 2000 ± 100 nM, the Kd [4] was 3 ± 0.1 µM and the Kd [5] was 6.5 ± 0.8 µM.

In the case of O=C(O)c1cc(=O)[nH]c(=O)[nH]1 [Orotate], the Kd [3] is reported as 280 ± 30 µM.

B1: S. typhimurium OMP synthase (orotate phosphoribosyltransferase) (Salmonella enterica subsp. enterica serovar Typhimurium str. LT2) (protein)
chain: T1 sequence (P08870 2-213)
In the case of B1, the Km (purified protein [8]) is reported as 31 ± 3 µM, the kcat (purified protein [8]) is reported as 18 ± 0.3 s⁻¹ and the kcat/Km (purified protein [8]) is reported as 580000 M⁻¹ s⁻¹. For the same molecule, the Km (purified protein [9]) was 3 ± 0.3 µM, the Km (purified protein [10]) was 19 ± 3 µM and the kcat (purified protein [10]) was 56 ± 2.5 s⁻¹. The kcat/Km (purified protein [10]) was 3e+06 M⁻¹ s⁻¹, the Km (purified protein [11]) was 18 ± 5 µM and the kcat (purified protein [11]) was 56 ± 2.5 s⁻¹. For the same molecule, the kcat/Km (purified protein [11]) was 3.1e+06 M⁻¹ s⁻¹.
